Source: US8785457B2 (Cellzome Limited, priority 2009, dated 2014)
Where two headings read alike, the source gives them in different places.

Legend:
mTOR = target: T1, mTOR (Homo sapiens, UniProt P42345); assay: mTOR kinobeads assay (competitive binding in Jurkat cell lysate, immunodetection)
T1 construct: endogenous in cells; host or cells: Jurkat, clone E6-1 (ATCC TIB-152) cell lysate
How it was run: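 IC50 derived from dose-response curves of mTOR captured on immobilized phenylmorpholin-chromen beads, detected by antibody dot blot with infrared fluorescence.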

PI3Kalpha (PI3Ka) = target: T2, PI3Kalpha (PI3Ka) (Homo sapiens, UniProt P42336); assay: kinobeads assay, PI3Kalpha; type: binding; settings: for PI3Ka: Further Kinobeads Data
T2 construct: endogenous in cells; host or cells: cell lysate
T2 sequence (P42336 whole entry): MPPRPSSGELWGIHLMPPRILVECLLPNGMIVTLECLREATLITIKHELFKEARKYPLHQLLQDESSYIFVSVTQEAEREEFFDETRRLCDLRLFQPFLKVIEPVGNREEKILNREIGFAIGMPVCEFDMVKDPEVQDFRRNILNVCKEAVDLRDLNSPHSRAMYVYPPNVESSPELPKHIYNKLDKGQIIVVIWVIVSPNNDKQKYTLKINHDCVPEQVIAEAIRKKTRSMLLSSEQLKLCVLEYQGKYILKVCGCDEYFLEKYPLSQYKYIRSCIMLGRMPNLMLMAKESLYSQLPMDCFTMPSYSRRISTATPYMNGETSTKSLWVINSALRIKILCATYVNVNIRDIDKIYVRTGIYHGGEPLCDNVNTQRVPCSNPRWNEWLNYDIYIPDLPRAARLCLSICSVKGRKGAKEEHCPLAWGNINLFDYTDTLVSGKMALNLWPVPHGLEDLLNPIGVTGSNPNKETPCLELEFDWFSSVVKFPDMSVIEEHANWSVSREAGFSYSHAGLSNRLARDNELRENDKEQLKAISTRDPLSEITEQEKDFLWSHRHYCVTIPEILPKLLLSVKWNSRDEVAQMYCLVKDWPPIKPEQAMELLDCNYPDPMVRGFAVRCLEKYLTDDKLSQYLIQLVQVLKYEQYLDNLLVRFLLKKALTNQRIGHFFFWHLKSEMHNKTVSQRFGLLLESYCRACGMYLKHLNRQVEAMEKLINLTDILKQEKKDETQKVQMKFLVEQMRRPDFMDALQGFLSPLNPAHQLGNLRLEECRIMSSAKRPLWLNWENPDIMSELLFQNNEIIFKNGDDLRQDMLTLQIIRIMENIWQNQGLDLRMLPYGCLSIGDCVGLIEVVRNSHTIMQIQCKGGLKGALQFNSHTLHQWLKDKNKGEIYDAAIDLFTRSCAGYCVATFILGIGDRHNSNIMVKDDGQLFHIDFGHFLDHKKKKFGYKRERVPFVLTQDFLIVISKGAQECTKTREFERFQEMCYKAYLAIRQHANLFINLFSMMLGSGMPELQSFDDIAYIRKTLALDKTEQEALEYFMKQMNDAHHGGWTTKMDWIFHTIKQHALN
T2 sequence (P27986 whole entry partner): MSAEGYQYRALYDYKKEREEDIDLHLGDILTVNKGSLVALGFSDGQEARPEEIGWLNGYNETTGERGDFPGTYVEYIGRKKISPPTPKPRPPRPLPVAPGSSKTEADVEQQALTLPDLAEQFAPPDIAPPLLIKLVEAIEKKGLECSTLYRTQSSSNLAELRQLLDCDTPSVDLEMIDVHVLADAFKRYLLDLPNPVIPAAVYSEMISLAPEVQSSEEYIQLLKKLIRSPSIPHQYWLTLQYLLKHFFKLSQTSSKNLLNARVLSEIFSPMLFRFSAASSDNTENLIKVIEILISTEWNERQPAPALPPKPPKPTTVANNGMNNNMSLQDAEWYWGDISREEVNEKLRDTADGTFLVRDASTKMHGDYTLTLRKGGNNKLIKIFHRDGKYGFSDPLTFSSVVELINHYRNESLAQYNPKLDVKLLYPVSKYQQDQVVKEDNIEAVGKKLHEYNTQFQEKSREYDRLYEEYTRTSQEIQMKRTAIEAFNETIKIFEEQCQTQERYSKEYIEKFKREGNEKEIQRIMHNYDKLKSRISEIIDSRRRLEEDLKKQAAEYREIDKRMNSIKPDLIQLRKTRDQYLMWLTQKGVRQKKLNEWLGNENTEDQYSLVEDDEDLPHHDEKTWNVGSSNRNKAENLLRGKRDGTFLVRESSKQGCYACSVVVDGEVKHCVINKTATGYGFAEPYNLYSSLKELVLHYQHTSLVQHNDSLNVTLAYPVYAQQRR
How it was run: (§1)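 Read-out is multiplexed immunodetection of kinase eluted from phenylmorpholin-chromen ligand beads after their incubation in cell lysate with test compound at various concentrations. Reduced capture reflects competition, and per-kinase dose-response curves yield IC50.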

PI3 Kbeta (PI3 Kb) = target: T3, PI3 Kbeta (PI3 Kb) (Homo sapiens, UniProt P42338); assay: kinobeads assay, PI3Kbeta; type: binding
T3 construct: endogenous in cells; host or cells: cell lysate
T3 sequence (P42338 whole entry): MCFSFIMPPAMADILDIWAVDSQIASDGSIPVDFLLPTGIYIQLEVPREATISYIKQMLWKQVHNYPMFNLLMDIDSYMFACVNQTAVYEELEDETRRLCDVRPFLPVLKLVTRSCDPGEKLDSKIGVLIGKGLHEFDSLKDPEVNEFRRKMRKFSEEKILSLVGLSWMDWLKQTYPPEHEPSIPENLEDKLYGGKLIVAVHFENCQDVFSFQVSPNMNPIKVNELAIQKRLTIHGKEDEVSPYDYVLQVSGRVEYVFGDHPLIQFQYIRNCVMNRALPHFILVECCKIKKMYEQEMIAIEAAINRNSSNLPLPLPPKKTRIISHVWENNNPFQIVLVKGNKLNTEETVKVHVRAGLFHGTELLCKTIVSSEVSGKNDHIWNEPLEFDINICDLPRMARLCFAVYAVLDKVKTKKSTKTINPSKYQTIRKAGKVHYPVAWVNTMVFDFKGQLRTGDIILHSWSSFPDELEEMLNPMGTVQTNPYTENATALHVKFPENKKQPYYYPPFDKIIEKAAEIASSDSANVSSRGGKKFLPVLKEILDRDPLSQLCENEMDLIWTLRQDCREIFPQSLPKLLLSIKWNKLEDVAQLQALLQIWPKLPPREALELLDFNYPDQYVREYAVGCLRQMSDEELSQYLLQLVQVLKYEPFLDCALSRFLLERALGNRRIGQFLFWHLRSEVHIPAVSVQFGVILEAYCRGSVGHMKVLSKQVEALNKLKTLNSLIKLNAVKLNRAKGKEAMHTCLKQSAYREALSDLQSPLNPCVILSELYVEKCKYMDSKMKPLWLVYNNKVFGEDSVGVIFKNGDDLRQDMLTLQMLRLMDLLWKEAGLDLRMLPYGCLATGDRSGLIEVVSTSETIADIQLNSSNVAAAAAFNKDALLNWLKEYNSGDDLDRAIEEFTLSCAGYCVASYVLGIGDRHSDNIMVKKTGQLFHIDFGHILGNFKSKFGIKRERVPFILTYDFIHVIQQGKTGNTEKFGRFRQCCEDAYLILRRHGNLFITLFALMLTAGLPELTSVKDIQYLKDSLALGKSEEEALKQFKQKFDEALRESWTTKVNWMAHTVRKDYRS
T3 sequence (P27986 whole entry partner): as the sequence (P27986 whole entry partner) above
How it was run: as §1

PI3 Kgamma (PI3 Kg) = target: T4, PI3 Kgamma (PI3 Kg) (Homo sapiens, UniProt P48736); assay: kinobeads assay, PI3Kgamma; type: binding
T4 construct: endogenous in cells; host or cells: cell lysate
T4 sequence (P48736 whole entry): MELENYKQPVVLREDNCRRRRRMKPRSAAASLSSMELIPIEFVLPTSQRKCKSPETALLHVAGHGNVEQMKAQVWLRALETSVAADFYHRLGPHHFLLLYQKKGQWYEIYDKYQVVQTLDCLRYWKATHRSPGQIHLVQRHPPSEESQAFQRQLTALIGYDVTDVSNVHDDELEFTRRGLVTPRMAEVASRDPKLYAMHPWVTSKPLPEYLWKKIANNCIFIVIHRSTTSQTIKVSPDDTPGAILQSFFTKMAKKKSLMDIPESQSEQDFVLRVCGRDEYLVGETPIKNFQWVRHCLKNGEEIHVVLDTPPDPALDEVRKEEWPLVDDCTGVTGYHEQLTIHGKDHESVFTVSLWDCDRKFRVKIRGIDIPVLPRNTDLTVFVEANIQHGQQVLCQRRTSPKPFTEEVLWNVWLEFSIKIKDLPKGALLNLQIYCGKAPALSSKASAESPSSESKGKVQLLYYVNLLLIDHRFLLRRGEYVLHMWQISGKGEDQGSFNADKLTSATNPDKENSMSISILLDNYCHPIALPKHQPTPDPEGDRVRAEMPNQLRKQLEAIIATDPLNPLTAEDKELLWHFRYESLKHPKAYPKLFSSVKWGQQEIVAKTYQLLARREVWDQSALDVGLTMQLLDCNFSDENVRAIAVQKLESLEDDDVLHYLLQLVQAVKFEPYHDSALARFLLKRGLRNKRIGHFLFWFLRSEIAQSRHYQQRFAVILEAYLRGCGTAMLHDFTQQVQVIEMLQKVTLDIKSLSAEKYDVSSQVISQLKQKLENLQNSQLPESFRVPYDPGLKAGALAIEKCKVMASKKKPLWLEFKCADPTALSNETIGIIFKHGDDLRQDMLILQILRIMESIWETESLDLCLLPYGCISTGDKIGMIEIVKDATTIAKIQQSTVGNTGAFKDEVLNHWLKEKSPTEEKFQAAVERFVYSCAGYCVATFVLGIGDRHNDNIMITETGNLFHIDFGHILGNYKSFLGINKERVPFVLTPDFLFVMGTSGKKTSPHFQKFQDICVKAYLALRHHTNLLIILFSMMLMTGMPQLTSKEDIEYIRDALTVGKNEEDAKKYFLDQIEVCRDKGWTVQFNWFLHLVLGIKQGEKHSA
How it was run: as §1

[1] = kinobeads assay, Table 4, read-out: Inhibition values (IC50) mTor
[2] = kinobeads assay, Table 6, read-out: Inhibition values (IC50) mTOR
[3] = Further Kinobeads Data, read-out: mTor
[4] = Further Kinobeads Data, read-out: PI3Kb
[5] = Further Kinobeads Data, read-out: PI3Kg

In the case of `C[C@H]1COCCN1c1nc(-c2ccc(NC(=O)NC3CC3)cc2)nc2c1CN(CC1CC1)C2` [Example 30], the IC50 (mTOR; [1]) is reported as < 0.1 µM and the IC50 (mTOR; [2]) is reported as < 0.1 µM.
With `C[C@@H]1COCCN1c1nc(-c2ccc(NC(=O)NC3CC3)cc2F)nc2c1CN(C=O)C2` [Example 190, (R)-1-cyclopropyl-3-(3-fluoro-4-(6-formyl-4-(3-methylmorpholino)-6,7-dihydro-5H-pyrrolo[3,4-d]pyrimidin-2-yl)phenyl)urea] the IC50 (mTOR; [3]) was < 0.1 µM, the PI3Ka (PI3Kalpha (PI3Ka)) was “D (D >10 μM)” and the IC50 (PI3 Kbeta (PI3 Kb); [4]) was > 10 µM. For the same compound, the IC50 (PI3 Kgamma (PI3 Kg); [5]) was > 10 µM.
For `C[C@H]1COCCN1c1nc(-c2ccc(NC(=O)NC3CC3)cc2)nc2c1CN(C(=O)C1CC1)C2` [Example 17, (S)-1-(4-(6-(cyclopropanecarbonyl)-4-(3-methylmorpholino)-6,7-dihydro-5H-pyrrolo[3,4-d]pyrimidin-2-yl)phenyl)-3-cyclopropylurea], the IC50 (mTOR; [1]) was < 0.1 µM and the IC50 (mTOR; [2]) was < 0.1 µM.
With `C[C@H]1COCCN1c1nc(-c2ccc(NC(=O)NC3CC3)cc2)nc2c1CCNC2` [Example 15, (S)-1-cyclopropyl-3-(4-(4-(3-methylmorpholino)-5,6,7,8-tetrahydropyrido[3,4-d]pyrimidin-2-yl)phenyl)urea] the IC50 (mTOR; [1]) was < 0.1 µM and the IC50 (mTOR; [2]) was < 0.1 µM.
`CCNC(=O)Nc1ccc(-c2nc3c(c(N4CCOC[C@@H]4C)n2)CCNC3)cc1` [Example 13, (S)-1-ethyl-3-(4-(4-(3-methylmorpholino)-5,6,7,8-tetrahydropyrido[3,4-d]pyrimidin-2yl)phenyl)urea] was tested, and the IC50 (mTOR; [1]) was < 0.1 µM and the IC50 (mTOR; [2]) was < 0.1 µM.
For `CCNC(=O)Nc1ccc(-c2nc3c(c(N4CCOC[C@@H]4C)n2)CCN(C(=O)C(C)C)C3)cc1` [Example 57, (S)-1-ethyl-3-(4-(7-isobutyryl-4-(3-methylmorpholino)-5,6,7,8-tetrahydropyrido[3,4-d]pyrimidin-2-yl)phenyl)urea], the IC50 (mTOR; [1]) was < 0.1 µM, the IC50 (mTOR; [2]) was < 0.1 µM and the “Inhibition values (IC50) PI3Ka” value (PI3Kalpha (PI3Ka); kinobeads assay, Table 6) was “D (D >10 μM)”. For the same compound, the IC50 (PI3 Kbeta (PI3 Kb); kinobeads assay, Table 6, read-out: Inhibition values (IC50) PI3Kb) was > 10 µM and the IC50 (PI3 Kgamma (PI3 Kg); kinobeads assay, Table 6, read-out: Inhibition values (IC50) PI3Kg) was > 10 µM.
With `CC(=O)N1Cc2nc(-c3ccc(NC(=O)NC4CC4)cc3F)nc(N3CCOC[C@@H]3C)c2C1` [Example 155, (S)-1-(4-(6-acetyl-4-(3-methylmorpholino)-6,7-dihydro-5H-pyrrolo[3,4-d]pyrimidin-2-yl)-3-fluorophenyl)-3-cyclopropylurea] the IC50 (mTOR; [3]) was < 0.1 µM, the PI3Ka (PI3Kalpha (PI3Ka)) was “D (D >10 μM)” and the IC50 (PI3 Kbeta (PI3 Kb); [4]) was > 10 µM. The IC50 (PI3 Kgamma (PI3 Kg); [5]) was > 10 µM.
In the case of `C[C@H]1COCCN1c1nc(-c2ccc(NC(=O)NC3CC3)cc2)nc2c1CNCC2` [Example 11, (S)-1-cyclopropyl-3-(4-(4-(3-methylmorpholino)-5,6,7,8-tetrahydropyrido[4,3-d]pyrimidin-2-yl)phenyl)urea], the IC50 (mTOR; [1]) is reported as 0.1 to 1 µM and the IC50 (mTOR; [2]) is reported as 0.1 to 1 µM.
Compound `C[C@H]1COCCN1c1nc(-c2ccc(NC(N)=O)cc2)nc2c1CN(CC1CC1)C2` [Example 48, (S)-1-(4-(6-(cyclopropylmethyl)-4-(3-methylmorpholino)-6,7-dihydro-5H-pyrrolo[3,4-d]pyrimidin-2-yl)phenyl)urea] has an IC50 (mTOR; [1]) of 0.1 to 1 µM and an IC50 (mTOR; [2]) of 0.1 to 1 µM.
`C[C@H]1COCCN1c1nc(-c2ccc(NC(=O)NC3CC3)cc2)nc2c1CN(C)C2` [Example 38, (S)-1-cyclopropyl-3-(4-(6-methyl-4-(3-methylmorpholino)-6,7-dihydro-5H-pyrrolo[3,4-d]pyrimidin-2-yl)phenyl)urea] was tested, and the IC50 (mTOR; [1]) was < 0.1 µM and the IC50 (mTOR; [2]) was < 0.1 µM.
With `CCNC(=O)Nc1ccc(-c2nc3c(c(N4CCOC[C@@H]4C)n2)CN(CC)C3)cc1` [Example 39, (S)-1-ethyl-3-(4-(6-ethyl-4-(3-methylmorpholino)-6,7-dihydro-5H-pyrrolo[3,4-d]pyrimidin-2-yl)phenyl)urea] the IC50 (mTOR; [1]) was < 0.1 µM and the IC50 (mTOR; [2]) was < 0.1 µM.
For `CCCNC(=O)Nc1ccc(-c2nc3c(c(N4CCOC[C@@H]4C)n2)CN(CC2CC2)C3)cc1` [Example 49, (S)-1-(4-(6-(cyclopropylmethyl)-4-(3-methylmorpholino)-6,7-dihydro-5H-pyrrolo[3,4-d]pyrimidin-2-yl)phenyl)-3-propylurea], the IC50 (mTOR; [1]) was 0.1 to 1 µM and the IC50 (mTOR; [2]) was 0.1 to 1 µM.
For `CNC(=O)Nc1ccc(-c2nc3c(c(N4CCOC[C@@H]4C)n2)CCNC3)cc1` [Example 16, (S)-1-methyl-3-(4-(4-(3-methylmorpholino)-5,6,7,8-tetrahydropyrido[3,4-d]pyrimidin-2-yl)phenyl)urea], the IC50 (mTOR; [1]) was < 0.1 µM and the IC50 (mTOR; [2]) was < 0.1 µM.
`CCNC(=O)Nc1ccc(-c2nc3c(c(N4CCOC[C@@H]4C)n2)CN(C=O)C3)cc1` [Example 8, (S)-1-ethyl-3-(4-(6-formyl-4-(3-methylmorpholino)-6,7-dihydro-5H-pyrrolo[3,4-d]pyrimidin-2-yl)phenyl)urea] was tested, and the IC50 (mTOR; [1]) was < 0.1 µM and the IC50 (mTOR; [2]) was < 0.1 µM.
With `CCNC(=O)Nc1ccc(-c2nc3c(c(N4CCOC[C@@H]4C)n2)CN(C(C)=O)C3)cc1` [Example 18, (S)-1-(4-(6-acetyl-4-(3-methylmorpholino)-6,7-dihydro-5H-pyrrolo[3,4-d]pyrimidin-2-yl)phenyl)-3-ethylurea] the IC50 (mTOR; [1]) was < 0.1 µM and the IC50 (mTOR; [2]) was < 0.1 µM.
For `CCN1Cc2nc(-c3ccc(NC(=O)NC4CC4)cc3)nc(N3CCOC[C@@H]3C)c2C1` [Example 36, (S)-1-cyclopropyl-3-(4-(6-ethyl-4-(3-methylmorpholino)-6,7-dihydro-5H-pyrrolo[3,4-d]pyrimidin-2-yl)phenyl)urea], the IC50 (mTOR; [1]) was < 0.1 µM and the IC50 (mTOR; [2]) was < 0.1 µM.
For `CC(=O)N1Cc2nc(-c3ccc(NC(=O)NC4CC4)cc3)nc(N3CCOC[C@@H]3C)c2C1` [Example 20, (S)-1-(4-(6-acetyl-4-(3-methylmorpholino)-6,7-dihydro-5H-pyrrolo[3,4-d]pyrimidin-2-yl)phenyl)-3-cyclopropylurea], the IC50 (mTOR; [1]) was < 0.1 µM and the IC50 (mTOR; [2]) was < 0.1 µM.
In the case of `C[C@H]1COCCN1c1nc(-c2ccc(NC(=O)NC3CCC3)cc2)nc2c1CN(C)C2` [Example 55, (S)-1-cyclobutyl-3-(4-(6-methyl-4-(3-methylmorpholino)-6,7-dihydro-5H-pyrrolo[3,4-d]pyrimidin-2-yl)phenyl)urea], the IC50 (mTOR; [1]) is reported as 0.1 to 1 µM and the IC50 (mTOR; [2]) is reported as 0.1 to 1 µM.
Compound `CC(C)NC(=O)Nc1ccc(-c2nc3c(c(N4CCOC[C@@H]4C)n2)CN(CC2CC2)C3)cc1` [Example 50, (S)-1-(4-(6-(cyclopropylmethyl)-4-(3-methylmorpholino)-6,7-dihydro-5H-pyrrolo[3,4-d]pyrimidin-2-yl)phenyl)-3-isopropylurea] has an IC50 (mTOR; [1]) of 0.1 to 1 µM and an IC50 (mTOR; [2]) of 0.1 to 1 µM.
With `CCNC(=O)Nc1ccc(-c2nc3c(c(N4CCOC[C@@H]4C)n2)CN(S(C)(=O)=O)C3)cc1` [Example 32, (S)-1-ethyl-3-(4-(4-(3-methylmorpholino)-6-(methylsulfonyl)-6,7-dihydro-5H-pyrrolo[3,4-d]pyrimidin-2-yl)phenyl)urea] the IC50 (mTOR; [1]) was < 0.1 µM and the IC50 (mTOR; [2]) was < 0.1 µM.
In the case of `CNC(=O)Nc1ccc(-c2nc3c(c(N4CCOC[C@@H]4C)n2)CN(CC2CC2)C3)cc1` [Example 47, (S)-1-(4-(6-(cyclopropylmethyl)-4-(3-methylmorpholino)-6,7-dihydro-5H-pyrrolo[3,4-d]pyrimidin-2-yl)phenyl)-3-methylurea], the IC50 (mTOR; [1]) is reported as < 0.1 µM and the IC50 (mTOR; [2]) is reported as < 0.1 µM.
In the case of `CC(C)N1Cc2nc(-c3ccc(NC(=O)NC4CC4)cc3)nc(N3CCOC[C@@H]3C)c2C1` [Example 46, (S)-1-cyclopropyl-3-(4-(6-isopropyl-4-(3-methylmorpholino)-6,7-dihydro-5H-pyrrolo[3,4-d]pyrimidin-2-yl)phenyl)urea], the IC50 (mTOR; [1]) is reported as < 0.1 µM and the IC50 (mTOR; [2]) is reported as < 0.1 µM.
With `CC(C)C(=O)N1Cc2nc(-c3ccc(NC(=O)NC4CC4)cc3)nc(N3CCOC[C@@H]3C)c2C1` [Example 44, (S)-1-cyclopropyl-3-(4-(6-isobutyryl-4-(3-methylmorpholino)-6,7-dihydro-5H-pyrrolo[3,4-d]pyrimidin-2-yl)phenyl)urea] the IC50 (mTOR; [1]) was < 0.1 µM and the IC50 (mTOR; [2]) was < 0.1 µM.
For `COC(=O)N1Cc2nc(-c3ccc(NC(=O)NCCF)cc3F)nc(N3CCOCC3)c2C1` [Example 169, Methyl 2-(2-fluoro-4-(3-(2-fluoroethyl)ureido)phenyl)-4-morpholino-5H-pyrrolo[3,4-d]pyrimidine-6(7H)-carboxylate], the IC50 (mTOR; [3]) was < 0.1 µM.
In the case of `CCNC(=O)Nc1ccc(-c2nc3c(c(N4CCOC[C@@H]4C)n2)CN(C)C3)cc1` [Example 26, (S)-1-ethyl-3-(4-(6-methyl-4-(3-methylmorpholino)-6,7-dihydro-5H-pyrrolo[3,4-d]pyrimidin-2-yl)phenyl)urea], the IC50 (mTOR; [1]) is reported as < 0.1 µM and the IC50 (mTOR; [2]) is reported as < 0.1 µM.
With `CCNC(=O)N1Cc2nc(-c3ccc(NC(=O)NC4CC4)cc3)nc(N3CCOC[C@@H]3C)c2C1` [Example 33, (S)-2-(4-(3-cyclopropylureido)phenyl)-N-ethyl-4-(3-methylmorpholino)-5H-pyrrolo[3,4-d]pyrimidine-6(7H)-carboxamide] the IC50 (mTOR; [1]) was < 0.1 µM and the IC50 (mTOR; [2]) was < 0.1 µM.
Compound `CCNC(=O)Nc1ccc(-c2nc3c(c(N4CCOC[C@@H]4C)n2)CN(C(=O)C(C)(C)C)C3)cc1` [Example 22, (S)-1-ethyl-3-(4-(4-(3-methylmorpholino)-6-pivaloyl-6,7-dihydro-5H-pyrrolo[3,4-d]pyrimidin-2-yl)phenyl)urea] has an IC50 (mTOR; [1]) of 0.1 to 1 µM and an IC50 (mTOR; [2]) of 0.1 to 1 µM.
With `CCNC(=O)Nc1ccc(-c2nc3c(c(N4CCOC[C@@H]4C)n2)CNCC3)cc1` [Example 12, (S)-1-ethyl-3-(4-(4-(3-methylmorpholino)-5,6,7,8-tetrahydropyrido[4,3-d]pyrimidin-2-yl)phenyl)urea] the IC50 (mTOR; [1]) was 0.1 to 1 µM and the IC50 (mTOR; [2]) was 0.1 to 1 µM.
